According to patent EP0774258A1, “Composition containing 5-fluorouracil and d4T for use in the treatment of retroviral infection” (priority 1995, dated 1997):

Legend:
[1] = system: clinical HIV-1 isolate, JEW; experiment: Anti-HIV activity (p24 ELISA) in acutely infected PHA-stimulated PBMC, clinical isolate JEW; type: cell-based
Excerpt: The materials and experimental procedure used to obtain the results reported in Tables 1 and 2 are described below.
Virus - A clinical HIV-1 isolate, JEW, was titrated with a infectivity assay [Johnson, V. A. and R. E. Byington. 1990. Infectivity assay, p. 71-76. in A. Aldovini and B. D. Walker (ed.), Techniques in HIV Research. Stockton Press, New York], and used in our experiments.
Chemicals - d4T was supplied by Bristol-Myers Squibb Company. 5-Fluorouracil (5-FU) was purchased from Sigma.
• 1. […] 50 µl of 4 X 10^6/ml infected PBMC were added to each well in these plates to get a final 1 X 10^6 cells/ml, and incubated at 37°C. • 4. […] This was repeated with d4T using 5-FU concentrations of 0.1 µM and 0.5 µM, respectively.

PBMC = settings: human

With O=c1[nH]cc(F)c(=O)[nH]1 [5-FU, 5-fluorouracil] as the molecule, how does the antiviral activity ([1]; Fluorouracil alone, up to 0.5 µM, PHA-PBMC acutely infected by isolate JEW) read?
The antiviral activity was “no antiviral activity”.

What about the 50% cytotoxicity concentration (PBMC) of the same molecule?
Its 50% cytotoxicity concentration is “approximately 9 µM”.

With Cc1cn([C@H]2C=C[C@@H](CO)O2)c(=O)[nH]c1=O [d4T, 2',3'-didehydro-3'-deoxythymidine] as the molecule, how does the “Fold Enhancement” value ([1]; enhancement of d4T anti-HIV activity by 0.2 µM 5-FU, isolate JEW) read?
The value was 1 X.

Which EC50 ([1]; Human immunodeficiency virus 1, PBMC, 168 h, 5-FU concentration 0.5 µM, PHA-stimulated PBMC, isolate JEW, p24 at day 7, mean of three experiments, read-out: EC50 (nM) of ddI) does the source give for OC[C@@H]1CC[C@H](n2cnc3c(O)ncnc32)O1 [ddI, 2',3'-dideoxyinosine] here?
Its EC50 is 138 ± 26 nM.

What about the “Fold Enhancement” value ([1]; effect of 0.2 µM 5-FU on ddI anti-HIV activity, isolate JEW) of the same molecule?
Its value is 0.6 X.

And the “Fold Enhancement” value ([1]; effect of 0.5 µM 5-FU on ddI anti-HIV activity, isolate JEW)?
The value was 0.7 X.
